{"source": "paper PMC7875911", "about": "(Frontiers in Pharmacology, 2021)", "key": {"[1]": {"test_system": "TTXs-I Na in small-diameter IB4 ^± DRG neurons", "protocol": "(§1) Spinal level L3–L5 DRG were removed and placed in ice-cold HEPES-buffered saline (HBS) composed of (in mM): 154 NaCl, 2.5 KCl, 1.8 CaCl2, 1.5 MgCl2, 10 HEPES, and 10 glucose (pH 7.4, 330 ± 5 mOsm). Iridectomy scissors were utilized to cut up ganglia before incubation at 37°C for 15 min in oxygenated HBS containing 5 mg ml^−1 collagenase type 2 (Worthington Biochemical Corp, Lakewood, NJ, United States) followed by 25 min in oxygenated HBS containing 1 mg ml^−1 papain (Worthington Biochemical Corp). […] After enzyme treatment, ganglia were placed in 3 ml of HBS following two room temperature HBS washes. Ganglia were then triturated through fire-polished Pasteur pipettes with decreasing bores to extract cells. Finally, the cells mixed in HBS were plated onto surface modified culture dishes (Corning Primaria™ easy grip). […] DRG cells were pre-treated with 1 μg ml^−1 Alexa Fluor 488-conjugated Bandeiraea simplicifolia IB4 (Invitrogen) for 5 min at room temperature and washed with HBS for 5 min before fluorescence was examined on the inverted microscope (Olympus, IX50) used for patch clamp recordings.\n(§2) Cell size was determined from an eyepiece graticule. Whole-cell electrophysiology was conducted at room temperature (22–24°C) in culture dishes perfused with room temperature HBS. The intracellular pipette solution contained (mM): 120 CsCl, 10 HEPES, 10 EGTA, 2 CaCl2, 5 MgATP, 5 Na2GTP, 5 NaCl; pH 7.3 (CsOH); 285 ± 5 mos mol l^−1.\n(§3) An EPC-9 patch-clamp amplifier and corresponding PULSE software from HEKA Electronik (Lambrecht/Pfalz, Germany) were used to make recordings. Currents were sampled at 50 kHz and recorded on a hard disk. Borosilicate glass from AM Systems, Everett, WA, United States were used for patch pipettes. The input resistance of the pipettes ranged from 2 to 4 MΩ. […] A built-in procedure of the HEKA amplifier compensated for the capacitive transient currents. A −P/6 protocol was utilized to subtract leak current online. I Ca was generated with the recording protocol which included a depolarization from a holding potential of −80 mV to 0 mV for 10 ms every 30 s. I Na was generated through a recording protocol which included a step depolarization from a holding potential of −80 mV to 0 mV for 10 ms at a frequency of 0.1 Hz. Cells were perfused with the test compound via a pressure driven perfusion system (AutoMate Scientific, United States).\n(§4) All data analysis and graphs were generated in OriginPro (Origin Lab Corporation, United States). […] Activation and SSI curves were fit by the modified Boltzmann equation: I or G=1/(1+exp(Vm−V0.5/ka)) Where I is the current or G is the conductance, Vm is the pre-pulse potential, V 0.5 is the half-maximal activation potential and ka is the slope factor.\n(§5) Statistical significance (p < 0.05) was determined using unpaired Student’s t-test or 1-way ANOVA followed by a Tukey multiple comparison. All data is presented as mean ± SEM (n), where n is individual cells."}, "[2]": {"test_system": "TTXs-I Na in small-diameter IB4 ^− DRG neurons", "protocol": "as §1, §2, §3, §4, §5"}, "hCav2.3": {"test_system": "hCav2.3", "experiment": "Whole-cell patch clamp, recombinant hCav2.3 in HEK293", "assay_type": "cell-based, human", "protocol": "Human embryonic kidney (HEK293T) cells containing the SV40 Large T-antigen were cultured at 37°C, 5% CO2 in Dulbecco’s Modified Eagle’s Medium (DMEM, Invitrogen Life Technologies, Australia), supplemented with 10% fetal bovine serum (FBS, Bovigen, Australia), 1% GlutaMAX and penicillin-streptomycin (Invitrogen, Australia). […]\n(§6) Depolarization-activated Ca^2+ currents (ICa) in transfected HEK293 cells were recorded in the whole-cell patch clamp configuration. Data were recorded using a MultiClamp 700B amplifier, digitized with a DigiData1440 and controlled using Clampex10.7 software (Molecular Devices, United States). […]\n(§7) Statistical significance (p < 0.05) was determined using unpaired Student’s t-test or 1-way ANOVA followed by a Tukey multiple comparison. […]\nNumerous HVA Cav channel isoforms are present in rat DRG neurons. […] We transiently co-transfected the individual Cav channel α-subunits of interest together with β3 and α2δ1 subunits in HEK293 cells and measured whole-cell I Ca currents by patch clamp. […]"}, "hCav2.2": {"target": "T1, hCav2.2 (Homo sapiens, UniProt Q00975)", "T1 construct": "expressed in transfected cells; host or cells: HEK293 (HEK293T), transient calcium phosphate co-transfection", "T1 sequence (P54289 25-956)": "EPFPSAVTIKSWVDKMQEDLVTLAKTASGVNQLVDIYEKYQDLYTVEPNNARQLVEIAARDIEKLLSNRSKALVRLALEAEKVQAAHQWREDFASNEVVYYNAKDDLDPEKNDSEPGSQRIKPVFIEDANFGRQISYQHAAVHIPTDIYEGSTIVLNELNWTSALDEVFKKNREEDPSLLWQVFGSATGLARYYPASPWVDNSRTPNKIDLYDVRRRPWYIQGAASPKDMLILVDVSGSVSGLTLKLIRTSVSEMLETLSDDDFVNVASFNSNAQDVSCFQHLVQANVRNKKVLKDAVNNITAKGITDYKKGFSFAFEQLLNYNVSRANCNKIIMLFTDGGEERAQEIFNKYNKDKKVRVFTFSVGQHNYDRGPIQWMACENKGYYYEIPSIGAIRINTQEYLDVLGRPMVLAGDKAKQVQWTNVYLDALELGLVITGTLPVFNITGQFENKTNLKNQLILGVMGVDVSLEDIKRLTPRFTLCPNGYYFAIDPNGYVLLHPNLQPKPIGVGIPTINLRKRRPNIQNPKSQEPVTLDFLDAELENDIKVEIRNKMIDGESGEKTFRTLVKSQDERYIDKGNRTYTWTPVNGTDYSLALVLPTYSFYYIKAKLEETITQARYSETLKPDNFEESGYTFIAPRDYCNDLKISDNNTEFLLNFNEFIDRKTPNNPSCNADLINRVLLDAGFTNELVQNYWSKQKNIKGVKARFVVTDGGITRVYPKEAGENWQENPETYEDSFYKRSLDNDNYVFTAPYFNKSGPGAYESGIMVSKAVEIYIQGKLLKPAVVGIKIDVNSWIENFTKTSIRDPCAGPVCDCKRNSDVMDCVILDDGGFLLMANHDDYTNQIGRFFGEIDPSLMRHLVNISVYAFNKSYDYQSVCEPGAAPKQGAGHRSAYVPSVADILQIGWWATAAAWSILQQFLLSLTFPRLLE", "T1 sequence (P54289 957-1103)": "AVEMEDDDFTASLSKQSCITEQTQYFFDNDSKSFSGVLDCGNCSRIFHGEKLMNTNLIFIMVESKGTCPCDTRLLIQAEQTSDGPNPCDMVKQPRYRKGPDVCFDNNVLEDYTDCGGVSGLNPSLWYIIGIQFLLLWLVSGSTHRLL", "T1 sequence (Q00975 whole entry)": "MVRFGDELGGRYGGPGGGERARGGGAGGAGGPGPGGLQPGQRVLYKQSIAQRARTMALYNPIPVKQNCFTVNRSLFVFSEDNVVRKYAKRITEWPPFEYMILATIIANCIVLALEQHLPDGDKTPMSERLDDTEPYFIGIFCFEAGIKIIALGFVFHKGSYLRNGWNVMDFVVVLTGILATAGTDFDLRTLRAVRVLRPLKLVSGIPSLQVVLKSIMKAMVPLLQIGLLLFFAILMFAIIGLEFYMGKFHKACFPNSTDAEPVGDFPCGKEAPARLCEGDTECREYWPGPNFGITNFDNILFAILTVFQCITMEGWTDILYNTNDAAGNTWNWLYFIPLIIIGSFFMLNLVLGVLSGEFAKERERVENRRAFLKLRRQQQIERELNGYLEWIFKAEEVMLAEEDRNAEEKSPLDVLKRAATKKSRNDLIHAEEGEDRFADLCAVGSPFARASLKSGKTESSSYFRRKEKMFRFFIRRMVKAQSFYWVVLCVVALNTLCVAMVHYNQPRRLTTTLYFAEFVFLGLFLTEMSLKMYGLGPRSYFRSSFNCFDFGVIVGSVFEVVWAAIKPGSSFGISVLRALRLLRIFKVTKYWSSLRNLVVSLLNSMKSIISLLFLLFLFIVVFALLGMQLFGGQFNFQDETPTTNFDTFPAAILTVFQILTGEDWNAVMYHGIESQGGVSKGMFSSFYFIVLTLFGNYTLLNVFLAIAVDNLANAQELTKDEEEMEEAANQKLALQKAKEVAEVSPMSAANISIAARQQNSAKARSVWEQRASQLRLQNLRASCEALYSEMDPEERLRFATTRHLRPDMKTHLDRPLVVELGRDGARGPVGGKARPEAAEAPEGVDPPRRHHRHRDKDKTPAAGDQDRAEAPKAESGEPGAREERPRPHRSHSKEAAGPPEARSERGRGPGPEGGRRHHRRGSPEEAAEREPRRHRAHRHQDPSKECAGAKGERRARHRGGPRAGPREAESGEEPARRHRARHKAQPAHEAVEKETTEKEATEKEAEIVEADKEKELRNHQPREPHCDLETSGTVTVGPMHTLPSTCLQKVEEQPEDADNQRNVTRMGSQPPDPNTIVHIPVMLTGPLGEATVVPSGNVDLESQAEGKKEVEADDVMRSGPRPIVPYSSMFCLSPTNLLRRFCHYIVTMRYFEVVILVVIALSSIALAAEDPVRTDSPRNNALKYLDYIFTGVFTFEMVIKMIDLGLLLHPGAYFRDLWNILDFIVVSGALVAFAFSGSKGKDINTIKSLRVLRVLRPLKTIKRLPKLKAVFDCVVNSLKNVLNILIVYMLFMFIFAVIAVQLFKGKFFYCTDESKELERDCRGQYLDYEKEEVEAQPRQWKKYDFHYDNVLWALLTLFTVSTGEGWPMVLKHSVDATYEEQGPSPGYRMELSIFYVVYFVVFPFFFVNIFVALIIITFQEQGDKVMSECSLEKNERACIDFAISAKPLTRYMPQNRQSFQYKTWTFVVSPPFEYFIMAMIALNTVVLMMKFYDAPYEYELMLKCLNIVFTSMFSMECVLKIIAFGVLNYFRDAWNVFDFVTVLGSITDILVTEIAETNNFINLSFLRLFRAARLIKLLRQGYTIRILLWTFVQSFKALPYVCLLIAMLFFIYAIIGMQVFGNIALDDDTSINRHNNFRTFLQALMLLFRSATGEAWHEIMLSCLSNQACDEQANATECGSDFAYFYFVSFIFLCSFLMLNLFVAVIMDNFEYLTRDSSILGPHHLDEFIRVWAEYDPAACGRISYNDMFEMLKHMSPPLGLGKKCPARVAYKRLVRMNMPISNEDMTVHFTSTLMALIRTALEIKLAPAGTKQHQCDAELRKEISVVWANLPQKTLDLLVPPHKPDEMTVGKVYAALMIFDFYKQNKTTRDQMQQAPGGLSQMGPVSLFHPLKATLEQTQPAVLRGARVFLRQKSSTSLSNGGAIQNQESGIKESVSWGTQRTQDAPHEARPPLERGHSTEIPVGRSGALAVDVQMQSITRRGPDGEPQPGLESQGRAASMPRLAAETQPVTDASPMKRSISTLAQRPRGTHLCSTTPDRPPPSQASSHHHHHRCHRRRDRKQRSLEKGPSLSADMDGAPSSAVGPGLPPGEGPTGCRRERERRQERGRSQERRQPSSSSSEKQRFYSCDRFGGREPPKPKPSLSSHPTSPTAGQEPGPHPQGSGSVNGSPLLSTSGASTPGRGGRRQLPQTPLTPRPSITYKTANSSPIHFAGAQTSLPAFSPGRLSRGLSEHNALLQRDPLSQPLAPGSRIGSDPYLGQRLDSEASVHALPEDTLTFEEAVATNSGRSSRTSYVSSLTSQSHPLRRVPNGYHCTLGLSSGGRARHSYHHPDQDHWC", "T1 sequence (P54284 whole entry, further chain)": "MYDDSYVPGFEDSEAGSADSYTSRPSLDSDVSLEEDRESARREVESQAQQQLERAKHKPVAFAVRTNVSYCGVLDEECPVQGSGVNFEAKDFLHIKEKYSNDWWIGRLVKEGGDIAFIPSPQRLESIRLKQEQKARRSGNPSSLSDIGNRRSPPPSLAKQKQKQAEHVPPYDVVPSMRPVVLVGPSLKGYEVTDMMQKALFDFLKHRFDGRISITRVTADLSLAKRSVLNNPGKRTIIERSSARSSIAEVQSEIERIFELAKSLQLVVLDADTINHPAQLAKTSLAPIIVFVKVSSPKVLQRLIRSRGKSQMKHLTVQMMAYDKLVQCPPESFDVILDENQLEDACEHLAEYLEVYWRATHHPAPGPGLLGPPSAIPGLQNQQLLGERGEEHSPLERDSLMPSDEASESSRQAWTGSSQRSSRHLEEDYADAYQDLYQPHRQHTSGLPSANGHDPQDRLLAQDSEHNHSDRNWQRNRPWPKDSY", "experiment": "hCav2.2 steady-state inactivation (SSI)", "assay_type": "cell-based", "protocol": "Human embryonic kidney (HEK293T) cells containing the SV40 Large T-antigen were cultured at 37°C, 5% CO2 in Dulbecco’s Modified Eagle’s Medium (DMEM, Invitrogen Life Technologies, Australia), supplemented with 10% fetal bovine serum (FBS, Bovigen, Australia), 1% GlutaMAX and penicillin-streptomycin (Invitrogen, Australia). HEK293 cells were then transiently co-transfected with the different voltage-gated calcium channel isoforms and green fluorescent protein (GFP) for visualization, using the calcium phosphate method. cDNAs encoding mCav1.2 (a gift from Dr. D. Lipscombe; Addgene plasmid #26572) ([Helton et al., 2005]), rCav1.3 (a gift from Dr. D. Lipscombe; Addgene plasmid # 49,333) ([Xu and Lipscombe, 2001]), hCav2.1 (a gift from Dr. J. Striessnig), rCav2.2 (a gift from Dr. D. Lipscombe), hCav2.2 (a gift from Dr. D. Yue), hCav2.3 (purchased from GenScript United States Inc.) were co-transfected with β3, α2δ1 and GFP. […]\nas §6, §7"}, "animal pain models": {"test_system": "animal pain models", "settings": "in vivo, cited from earlier work", "description": "[…]. Nav channels are structurally related to voltage-gated calcium (Cav) channels, Cav1 and Cav2. […] […]."}}, "note": "“Also recorded” adds a separate entry of the source."}
{"molecule": "CSCC[C@@H]1NC(=O)[C@H](Cc2ccc(O)cc2)NC(=O)[C@H](CCCNC(=N)N)NC(=O)[C@@H](NC(=O)[C@@H](N)CC(=O)O)CSSC[C@@H]2NC(=O)[C@@H]3CSSC[C@@H](C(=O)N[C@@H](C)C(=O)N[C@@H](Cc4c[nH]c5ccccc45)C(=O)N[C@@H](CC(=O)O)C(=O)N[C@@H](Cc4ccccc4)C(=O)N[C@H](C(=O)N[C@@H](Cc4ccccc4)C(=O)N[C@H](C(=O)O)[C@@H](C)O)[C@@H](C)O)NC(=O)[C@H](Cc4ccc(O)cc4)NC(=O)[C@H](CCCCN)NC(=O)[C@H](CCSC)NC(=O)[C@H](CCCCN)NC(=O)[C@H](CCCNC(=N)N)NC(=O)[C@H](CCCCN)NC(=O)[C@H](CSSC[C@H](NC(=O)[C@H](CC(=O)O)NC(=O)CNC(=O)[C@H](Cc4ccccc4)NC1=O)C(=O)N[C@@H](CCC(=O)O)C(=O)N[C@@H](CCCCN)C(=O)N[C@@H](CC(=O)O)C(=O)N[C@@H](CCC(=O)O)C(=O)N[C@@H](CC(=O)O)C(=O)N3)NC(=O)CNC(=O)[C@H](CC(C)C)NC(=O)[C@H](Cc1c[nH]cn1)NC(=O)[C@H](CCCCN)NC2=O", "note": "[Pn3a, µ-Theraphotoxin-Pn3a]", "values": [{"measurement": "I Na remaining after application", "setting": "[1]", "result": "~50", "unit": "%"}, {"measurement": "reversibility on washout of TTXs-I Na inhibition", "setting": "[1]", "result": "fully reversible upon washout"}, {"measurement": "I Na remaining after application", "setting": "[2]", "result": "~50", "unit": "%"}, {"measurement": "potency loss versus reported recombinant hNav1.7", "setting": "[2]", "result": "~250", "unit": "fold"}, {"measurement": "reversibility on washout of TTXs-I Na inhibition", "setting": "[2]", "result": "fully reversible upon washout"}, {"measurement": "effect on Cav2.3-mediated current (in words)", "setting": "hCav2.3", "result": "no inhibition; also recorded: negligible effects; also recorded: minimally affected"}, {"measurement": "inhibition of Cav2.3-mediated current", "setting": "hCav2.3; 10 µM", "result": "2.2 ± 0.9", "unit": "%"}, {"measurement": "V0.5 of steady-state inactivation", "setting": "hCav2.2", "result": "−69.8 ± 0.3", "unit": "mV"}, {"measurement": "slope factor ka of steady-state inactivation", "setting": "hCav2.2", "result": "10.5 ± 0.3"}, {"measurement": "analgesia/anti-allodynia on co-administration with opioids (in words)", "setting": "animal pain models; 1 mg/kg", "result": "significant analgesia/anti-allodynia"}, {"measurement": "analgesia in various animal pain models (in words)", "setting": "animal pain models", "result": "fails to produce analgesia"}, {"measurement": "effect in rodent models of acute nociception or inflammatory pain (in words)", "setting": "animal pain models", "result": "ineffective"}]}
